Experimental data taken from PubChem BioAssay (NCI).
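Tested at 5 concentrations; 48 h exposure; 96-well plates; endpoints linearly interpolated, else capped at highest concentration. Abbreviation: GI50, concentration required for 50% inhibition of growth. TGI marks complete inhibition of growth.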

Assays:
Assay in all cases: growth of human tumour cells (NCI), 48 h
SK-MEL-2 melanoma = tested on: SK-MEL-2 melanoma
OVCAR-5 ovarian = tested on: OVCAR-5 ovarian
SNB-19 CNS = tested on: SNB-19 CNS
A498 renal = tested on: A498 renal
IGROV1 ovarian = tested on: IGROV1 ovarian
KM12 colon = tested on: KM12 colon
SW-620 colon = tested on: SW-620 colon
NCI-H23 lung = tested on: NCI-H23 lung
HOP-62 NSCLC = tested on: HOP-62 NSCLC
CAKI-1 renal = tested on: CAKI-1 renal

SMILES	GI50 (SK-MEL-2 melanoma)	TGI (SK-MEL-2 melanoma)	GI50 (OVCAR-5 ovarian)	TGI (OVCAR-5 ovarian)	GI50 (SNB-19 CNS)	TGI (SNB-19 CNS)	GI50 (A498 renal)	TGI (A498 renal)	GI50 (IGROV1 ovarian)	TGI (IGROV1 ovarian)	GI50 (KM12 colon)	TGI (KM12 colon)	GI50 (SW-620 colon)	TGI (SW-620 colon)	GI50 (NCI-H23 lung)	TGI (NCI-H23 lung)	GI50 (HOP-62 NSCLC)	TGI (HOP-62 NSCLC)	GI50 (CAKI-1 renal)	TGI (CAKI-1 renal)
COc1ccccc1Nc1cc(O)c2c(=O)cc(-c3ccccc3)oc2c1	5.62 µM	34.2 µM	4.82 µM	27.3 µM	2.99 µM	15.7 µM	3.08 µM	13.9 µM	2.98 µM	18.5 µM	2.76 µM	55.2 µM	2.5 µM	> 100 µM	4.22 µM	52.6 µM	3.55 µM	> 100 µM	4.24 µM	20.3 µM
COc1cc(/C=C/c2cc(/C=C/c3ccc(O)c(OC)c3)n(C(=O)c3ccc(Cl)cc3)n2)ccc1O	1.92 µM	5.85 µM	3.66 µM	18.2 µM	2.8 µM	12.1 µM	2.71 µM	9.6 µM	3.17 µM	15.4 µM	1.24 µM	14.4 µM	3.12 µM	13.8 µM	2.35 µM	7.95 µM	2.08 µM	6.92 µM	2.97 µM	15 µM
C=CCNC(=O)NCCCCC(NC(C)=O)C(=O)NCc1ccccc1 (stereo not drawn)		> 100 µM		> 100 µM		> 100 µM		> 100 µM		> 100 µM		> 100 µM		> 100 µM		> 100 µM		> 100 µM		> 100 µM
CC(C)(C)C(=O)OCOP(=O)(NCc1ccccc1)C1CCCN(O)C1=O (stereo not drawn)	2.85 µM	15.6 µM	8.99 µM	> 100 µM	3.12 µM	24.9 µM	0.692 µM	9.18 µM	2.91 µM	9.59 µM	1.13 µM	3.56 µM	2.87 µM	> 100 µM	2.77 µM	13.4 µM	2.55 µM	32.8 µM	3.5 µM	> 100 µM
O=C(NCCCCN1CCOCC1)c1cc2ccccc2o1	> 100 µM	> 100 µM	> 100 µM	> 100 µM	> 100 µM	> 100 µM	> 100 µM	> 100 µM	> 100 µM	> 100 µM	> 100 µM	> 100 µM	> 100 µM	> 100 µM	> 100 µM	> 100 µM	> 100 µM	> 100 µM	> 100 µM	> 100 µM
Cc1cnc2n1S(=O)(=O)c1cc(C(=O)Nc3cccc4nsnc34)c(Cl)cc1S2	44.2 µM	> 100 µM	54 µM	> 100 µM	27.2 µM	60.8 µM	13.8 µM	34.8 µM	31.2 µM	> 100 µM	17.6 µM	33.4 µM	19.1 µM	37.2 µM	18 µM	32.8 µM	20.1 µM	35.8 µM	16.8 µM	30.9 µM
O=C(O)CSc1n[nH]c(=O)[nH]c1=O		> 100 µM		> 100 µM		> 100 µM		> 100 µM		> 100 µM		> 100 µM		> 100 µM		> 100 µM		> 100 µM		> 100 µM
CCc1ccc(Oc2c(-c3ccc(OCc4ccc(Cl)cc4)cc3O)n[nH]c2C(F)(F)F)cc1	1.75 µM	3.74 µM	1.89 µM	3.95 µM	1.98 µM	4.21 µM	1.87 µM	3.82 µM	2.33 µM	6.87 µM	1.77 µM	3.35 µM	2.05 µM	4.45 µM	1.67 µM	3.35 µM	1.87 µM	3.48 µM	2.29 µM	5.95 µM
O=C1[C@H]2ON(c3ccccc3)C(c3ccc([N+](=O)[O-])cc3)[C@H]2C(=O)N1c1ccc(Cc2ccc(N3C(=O)[C@@H]4ON(c5ccccc5)C(c5ccc([N+](=O)[O-])cc5)[C@@H]4C3=O)cc2)cc1 (stereo partly drawn)		> 100 µM		> 100 µM		> 100 µM		> 100 µM		> 100 µM		> 100 µM		> 100 µM		> 100 µM		> 100 µM		> 100 µM
O=c1c2c(nc3n1CCS3)[nH]c1cc([N+](=O)[O-])ccc12	> 100 µM	> 100 µM	> 100 µM	> 100 µM	> 100 µM	> 100 µM	> 100 µM	> 100 µM	36.2 µM	> 100 µM	> 100 µM	> 100 µM	> 100 µM	> 100 µM	> 100 µM	> 100 µM	> 100 µM	> 100 µM	> 100 µM	> 100 µM
Oc1ccc(C=Nc2ccccc2O)cc1		57.3 µM		> 100 µM		> 100 µM		> 100 µM		> 100 µM		> 100 µM		> 100 µM		> 100 µM		> 100 µM		> 100 µM
O=C1NC(=C(Cl)Cl)/C(=N/S(=O)(=O)N2CCCCC2)N1	2.92 µM	7.72 µM	1.87 µM	3.63 µM	2.38 µM	5.34 µM	12.4 µM	25.4 µM			0.499 µM	10.3 µM	2.11 µM	4.17 µM	2.2 µM	5 µM	2.92 µM	9.07 µM	1.77 µM	3.26 µM
Fc1ccc(-c2c(-c3ccncc3)nc3n2CCS3)cc1	> 25 µM	> 25 µM	> 25 µM	> 25 µM	> 25 µM	> 25 µM	> 15.6 µM	> 25 µM	> 25 µM	> 25 µM	> 25 µM	> 25 µM	> 25 µM	> 25 µM	> 25 µM	> 25 µM	> 25 µM	> 25 µM	> 25 µM	> 25 µM
COc1cccc2c1c1ccc3c(c1n2C)C(=O)C=CC3=O		33 µM		> 100 µM		> 100 µM		> 100 µM		> 100 µM		> 100 µM		24.7 µM		32.2 µM		> 100 µM		11.6 µM
